Test results published in PubChem BioAssay (NCI).
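Abbreviation: GI50, concentration required for 50% inhibition of growth. TGI denotes the concentration required for complete inhibition of growth.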

Key:
Test in all cases: inhibition of tumour cell growth, NCI panel, 384-well format
MDA-MB-231 breast = system: MDA-MB-231 breast
COLO 205 colon = system: COLO 205 colon
NCI/ADR-RES ovarian = system: NCI/ADR-RES ovarian
HL-60(TB) leukemia = system: HL-60(TB) leukemia
NCI-H226 lung = system: NCI-H226 lung
A549 NSCLC = system: A549 NSCLC
U251 glioblastoma = system: U251 glioblastoma
SK-MEL-28 melanoma = system: SK-MEL-28 melanoma
SK-MEL-2 melanoma = system: SK-MEL-2 melanoma
SNB-19 CNS = system: SNB-19 CNS
RPMI-8226 leukemia = system: RPMI-8226 leukemia
MDA-MB-435 melanoma = system: MDA-MB-435 melanoma
TK-10 renal = system: TK-10 renal
KM12 colon = system: KM12 colon
UACC-257 melanoma = system: UACC-257 melanoma
OVCAR-4 ovarian = system: OVCAR-4 ovarian
HT29 colon = system: HT29 colon
A498 renal = system: A498 renal
M14 melanoma = system: M14 melanoma
SF-268 CNS = system: SF-268 CNS
CAKI-1 renal = system: CAKI-1 renal
HS 578T breast = system: HS 578T breast
OVCAR-5 ovarian = system: OVCAR-5 ovarian
NCI-H322M lung = system: NCI-H322M lung
786-0 renal = system: 786-0 renal
MCF7 breast = system: MCF7 breast
UACC-62 melanoma = system: UACC-62 melanoma
NCI-H522 lung = system: NCI-H522 lung
HCC-2998 colon = system: HCC-2998 colon
HCT-116 colon = system: HCT-116 colon
CCRF-CEM leukemia = system: CCRF-CEM leukemia
HOP-92 NSCLC = system: HOP-92 NSCLC
K-562 leukemia = system: K-562 leukemia
BT-549 breast = system: BT-549 breast
NCI-H460 NSCLC = system: NCI-H460 NSCLC
SF-295 CNS = system: SF-295 CNS
SNB-75 CNS = system: SNB-75 CNS
PC-3 prostate = system: PC-3 prostate
OVCAR-8 ovarian = system: OVCAR-8 ovarian
ACHN renal = system: ACHN renal
HCT-15 colon = system: HCT-15 colon
MOLT-4 leukemia = system: MOLT-4 leukemia
IGROV1 ovarian = system: IGROV1 ovarian
HOP-62 NSCLC = system: HOP-62 NSCLC
SK-MEL-5 melanoma = system: SK-MEL-5 melanoma
LOX IMVI melanoma = system: LOX IMVI melanoma
MALME-3M melanoma = system: MALME-3M melanoma
SW-620 colon = system: SW-620 colon
T-47D breast = system: T-47D breast
OVCAR-3 ovarian = system: OVCAR-3 ovarian
MDA-MB-468 breast = system: MDA-MB-468 breast
SN12C renal = system: SN12C renal
UO-31 renal = system: UO-31 renal
RXF 393 renal = system: RXF 393 renal
NCI-H23 lung = system: NCI-H23 lung
SK-OV-3 ovarian = system: SK-OV-3 ovarian
SF-539 CNS = system: SF-539 CNS
EKVX NSCLC = system: EKVX NSCLC
DU-145 prostate = system: DU-145 prostate

SMILES: Cc1c(N)nc([C@H](CC(N)=O)NC[C@H](N)C(N)=O)nc1C(=O)N[C@H](C(=O)N[C@H](C)[C@@H](O)[C@H](C)C(=O)N[C@H](C(=O)NCCc1nc(-c2nc(C(=O)NCCC[S+](C)C)cs2)cs1)[C@@H](C)O)C(OC1OC(CO)C(O)C(O)C1OC1OC(CO)C(O)C(OC(N)=O)C1O)c1cnc[nH]1 (some centres not stated)
- GI50 (MDA-MB-231 breast): 31.2 µM
- TGI (MDA-MB-231 breast): > 100 µM
- GI50 (COLO 205 colon): 2.96 µM
- TGI (COLO 205 colon): 7.57 µM
- GI50 (NCI/ADR-RES ovarian): 0.273 µM
- TGI (NCI/ADR-RES ovarian): 5.9 µM
- GI50 (HL-60(TB) leukemia): 2.66 µM
- TGI (HL-60(TB) leukemia): 7.29 µM
- GI50 (NCI-H226 lung): 0.778 µM
- TGI (NCI-H226 lung): 9.52 µM
- GI50 (A549 NSCLC): 1.65 µM
- TGI (A549 NSCLC): > 92.1 µM
- GI50 (U251 glioblastoma): 0.522 µM
- TGI (U251 glioblastoma): 11.2 µM
- GI50 (SK-MEL-28 melanoma): 43.7 µM
- TGI (SK-MEL-28 melanoma): > 100 µM
- GI50 (SK-MEL-2 melanoma): 11.1 µM
- TGI (SK-MEL-2 melanoma): 25.5 µM
- GI50 (SNB-19 CNS): 6.76 µM
- TGI (SNB-19 CNS): > 52 µM
- GI50 (RPMI-8226 leukemia): 7.9 µM
- TGI (RPMI-8226 leukemia): > 100 µM
- GI50 (MDA-MB-435 melanoma): 71.3 µM
- TGI (MDA-MB-435 melanoma): > 100 µM
- GI50 (TK-10 renal): 8.01 µM
- TGI (TK-10 renal): > 42.1 µM
- GI50 (KM12 colon): 1.78 µM
- TGI (KM12 colon): 27.8 µM
- GI50 (UACC-257 melanoma): > 68 µM
- TGI (UACC-257 melanoma): > 100 µM
- GI50 (OVCAR-4 ovarian): 13 µM
- TGI (OVCAR-4 ovarian): > 54.7 µM
- GI50 (HT29 colon): 16.9 µM
- TGI (HT29 colon): > 100 µM
- GI50 (A498 renal): 1.51 µM
- TGI (A498 renal): 25.9 µM
- GI50 (M14 melanoma): 1.42 µM
- TGI (M14 melanoma): 23.2 µM
- GI50 (SF-268 CNS): 0.6 µM
- TGI (SF-268 CNS): 8.37 µM
- GI50 (CAKI-1 renal): 1.43 µM
- TGI (CAKI-1 renal): > 44.8 µM
- GI50 (HS 578T breast): 0.266 µM
- TGI (HS 578T breast): 5.4 µM
- GI50 (OVCAR-5 ovarian): 6.43 µM
- TGI (OVCAR-5 ovarian): > 76 µM
- GI50 (NCI-H322M lung): 26.1 µM
- TGI (NCI-H322M lung): > 100 µM
- GI50 ([…]-0 renal): 0.945 µM
- GI50 (MCF7 breast): 10 µM
- TGI (MCF7 breast): > 100 µM
- GI50 (UACC-62 melanoma): 1.26 µM
- TGI (UACC-62 melanoma): 20 µM
- GI50 (NCI-H522 lung): 2.21 µM
- TGI (NCI-H522 lung): 16.4 µM
- GI50 (HCC-2998 colon): 6.35 µM
- TGI (HCC-2998 colon): 53.3 µM
- GI50 (HCT-116 colon): 0.071 µM
- TGI (HCT-116 colon): 19 µM
- GI50 (CCRF-CEM leukemia): 2.08 µM
- TGI (CCRF-CEM leukemia): 6.72 µM
- GI50 (HOP-92 NSCLC): 0.648 µM
- TGI (HOP-92 NSCLC): 23.6 µM
- GI50 (K-562 leukemia): 8.46 µM
- TGI (K-562 leukemia): > 79 µM
- GI50 (BT-549 breast): 1.06 µM
- TGI (BT-549 breast): 22.4 µM
- GI50 (NCI-H460 NSCLC): 0.331 µM
- TGI (NCI-H460 NSCLC): 14.6 µM
- GI50 (SF-295 CNS): 0.128 µM
- TGI (SF-295 CNS): 0.824 µM
- GI50 (SNB-75 CNS): 1.32 µM
- TGI (SNB-75 CNS): 6.43 µM
- GI50 (PC-3 prostate): 46.5 µM
- TGI (PC-3 prostate): > 100 µM
- GI50 (OVCAR-8 ovarian): 0.41 µM
- TGI (OVCAR-8 ovarian): 21 µM
- GI50 (ACHN renal): 0.164 µM
- TGI (ACHN renal): 0.929 µM
- GI50 (HCT-15 colon): 0.4 µM
- TGI (HCT-15 colon): 16.9 µM
- GI50 (MOLT-4 leukemia): 0.439 µM
- TGI (MOLT-4 leukemia): 1.53 µM
- GI50 (IGROV1 ovarian): 3.19 µM
- TGI (IGROV1 ovarian): 43.6 µM
- GI50 (HOP-62 NSCLC): 0.169 µM
- TGI (HOP-62 NSCLC): 1.19 µM
- GI50 (SK-MEL-5 melanoma): 0.211 µM
- TGI (SK-MEL-5 melanoma): 1.17 µM
- GI50 (LOX IMVI melanoma): 0.57 µM
- TGI (LOX IMVI melanoma): 12.3 µM
- GI50 (MALME-3M melanoma): 18.2 µM
- TGI (MALME-3M melanoma): > 100 µM
- GI50 (SW-620 colon): 4.95 µM
- TGI (SW-620 colon): > 100 µM
- GI50 (T-47D breast): 9.71 µM
- TGI (T-47D breast): > 82.5 µM
- GI50 (OVCAR-3 ovarian): 3.67 µM
- TGI (OVCAR-3 ovarian): 13.7 µM
- GI50 (MDA-MB-468 breast): 0.97 µM
- TGI (MDA-MB-468 breast): 4.28 µM
- GI50 (SN12C renal): 1.62 µM
- TGI (SN12C renal): 34.9 µM
- GI50 (UO-31 renal): 2.08 µM
- TGI (UO-31 renal): > 35.3 µM
- GI50 (RXF 393 renal): 2.2 µM
- TGI (RXF 393 renal): 10.2 µM
- GI50 (NCI-H23 lung): 1.21 µM
- TGI (NCI-H23 lung): 11.9 µM
- GI50 (SK-OV-3 ovarian): 4.84 µM
- TGI (SK-OV-3 ovarian): > 64.7 µM
- GI50 (SF-539 CNS): 0.234 µM
- TGI (SF-539 CNS): 4.56 µM
- GI50 (EKVX NSCLC): > 48.2 µM
- TGI (EKVX NSCLC): > 100 µM
- GI50 (DU-145 prostate): 1.71 µM
- TGI (DU-145 prostate): > 20.5 µM
